Counter-ions that a name gives are not always drawn.

Experiment [1] has as its target T1, recombinant human ETAR (HETA) (Homo sapiens, UniProt P25101).
T1 construct: expressed in transfected cells; host or cells: Ltk- cells (membrane preparation)
T1 sequence (P25101 21-427): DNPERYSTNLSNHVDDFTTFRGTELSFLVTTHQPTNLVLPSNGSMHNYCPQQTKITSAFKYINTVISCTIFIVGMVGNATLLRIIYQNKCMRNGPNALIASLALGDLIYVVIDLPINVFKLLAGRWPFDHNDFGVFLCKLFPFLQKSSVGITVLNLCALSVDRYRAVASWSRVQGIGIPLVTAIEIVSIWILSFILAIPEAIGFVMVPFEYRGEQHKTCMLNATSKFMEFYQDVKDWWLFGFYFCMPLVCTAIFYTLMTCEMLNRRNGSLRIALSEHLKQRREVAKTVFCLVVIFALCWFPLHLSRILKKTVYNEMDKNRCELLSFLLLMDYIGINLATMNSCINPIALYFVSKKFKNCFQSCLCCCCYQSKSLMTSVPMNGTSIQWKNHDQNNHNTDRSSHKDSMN
Put plainly: Radioligand binding, [125I]ET-1 to membranes of Ltk- cells expressing recombinant human ETAR (HETA). The note with it: [125I]ET-1 binding, human ETA, Ltk- cell membranes; read-out: HETA (IC50). The procedure:
(§1) The following cultured cells were used in binding experiments: Ltk-cells expressing recombinant human ETAR (HETA), and CHOKI cells expressing recombinant human ETBR (HETB).
(§2) Membranes were prepared from cultured cells by lysing cells in cold lysis buffer (5 mM HEPES, 2 mM EDTA, pH 7.4) and homogenizing with a Dounce “A” homogenizer. The homogenate was centrifuged at 30,000×g for 20 minutes at […]. Membrane pellets were suspended in cold buffer containing 20 mM Tris, 2 mM EDTA, 200 μM Pefabloc, 10 μM phosphoramidon, 10 μM leupeptin, 1 μM pepstatin at pH 7.4 and frozen at […] until use. Membranes were thawed and homogenized with a Brinkmann Polytron then diluted in tissue buffer containing 20 mM Tris, 2 mM EDTA, 200 μM Pefabloc, and 100 μM bacitracin (pH 7.4). Radioligand and competing ligands were prepared in binding buffer containing 20 mM Tris, 2 mM EDTA, and 0.1% BSA.
(§3) The assay was terminated by filtration over Whatman GF/B filters which were presoaked with 50 mM Tris, pH 7.4 containing 0.2% BSA and 100 μM bacitracin. Nonspecific binding was defined as binding in the presence of 100 nM ET-1.

For experiment [2], the target named is T2, recombinant human ETBR (HETB) (Homo sapiens, UniProt P24530).
T2 construct: expressed in transfected cells; host or cells: CHOKI (CHO-K1) cells (membrane preparation)
T2 sequence (P24530 27-442): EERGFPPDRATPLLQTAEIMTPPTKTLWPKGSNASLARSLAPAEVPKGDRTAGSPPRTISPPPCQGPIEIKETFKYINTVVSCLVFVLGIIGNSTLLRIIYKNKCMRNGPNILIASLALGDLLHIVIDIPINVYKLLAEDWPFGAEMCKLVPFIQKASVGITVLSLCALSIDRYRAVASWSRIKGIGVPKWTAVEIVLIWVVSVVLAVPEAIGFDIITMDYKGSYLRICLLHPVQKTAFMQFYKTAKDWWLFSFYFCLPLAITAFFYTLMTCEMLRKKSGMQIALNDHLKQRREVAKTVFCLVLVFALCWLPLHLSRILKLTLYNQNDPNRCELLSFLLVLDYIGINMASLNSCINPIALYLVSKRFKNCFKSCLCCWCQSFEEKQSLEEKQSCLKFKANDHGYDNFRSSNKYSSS
Put plainly: Radioligand binding, [125I]ET-1 to membranes of CHOKI cells expressing recombinant human ETBR (HETB). Particulars: [125I]ET-1 binding, human ETB, CHOKI cell membranes. The procedure:
as §1, §2, §3

In experiment [3] the test system is ETA, rabbit femoral artery. Put plainly: Antagonism of ET-1 stimulated vasoconstriction (VERAA) in the rabbit femoral artery (ETA). Particulars: ET-1 stimulated vasoconstriction, rabbit femoral artery. The text has this:
In Vitro Antagonism of ET-1 Stimulated Vasoconstriction (VERAA) in the Rabbit Femoral Arterv (ETA) and Sarafotoxin 6C Stimulated Vasoconstriction in the Rabbit Pulmonarv Artery (ETB)
Male New Zealand rabbits were killed by cervical dislocation and exsanguination. Femoral and pulmonary arteries were isolated, cleaned of connective tissue, and cut into 4mm rings. The endothelium was denuded by placing the rings over hypodermic tubing (32 gauge for femoral rings and 28 gauge for pulmonary rings, Small Parts, Inc., Miami, Fla.) and gently rolling them. Denuded rings were mounted in 20 mL organ baths containing Krebsbicarbonate buffer (composition in mM: NaCl, 118.2; NaHCO3, 24.8; KCl, 4.6; MgSO4 7H2O, 1.2; KH2PO4, 1.2; CaCl2 2H2O; CaNa2 EDTA, 0.026;, dextrose, 10.0), that was maintained at 37° C. and gassed continuously with 5% CO2 in oxygen (pH 7.4). Resting tension was adjusted to 3.0 g for femoral and 4.0 g pulmonary arteries; the rings were left for 90 minutes to equilibrate. Vascular rings were tested for lack of functional endothelium (ie, lack of an endotheliumdependent relaxation response to carbachol ([…]) in norepinephrine ([…]) contracted rings. Agonist peptides, ET-1 -(femoral), and S6c (pulmonary), were cumulatively added at 10-minute intervals. The ET antagonists were added 30 minutes prior to adding the agonist.

In general, IC50 refers to the concentration that gives 50% inhibition. For `COc1cc(OC)cc(C2=C(C(=O)O)N(c3ccccc3Cl)S(=O)(=O)c3ccccc32)c1` [Example 2], the figures for the IC50 in experiment [1] and in experiment [2] were 2 nM and 7300 nM, respectively. Besides, the “VERAA (pA2)” value in experiment [3] is 6.6.

Regarding `CCCc1ccccc1N1C(C(=O)O)=C(c2ccc3c(c2)OCO3)c2ccccc2S1(=O)=O` [Example 14, 4-Benzo[1,3]dioxol-5-yl-2-(2-1,2-pyphenyl)-1,1-dioxo 1,2-dihydro-1λ^6-benzo[e][1,2]thiazine-3-carboxylic acid], the IC50 was 35 nM in experiment [1] and more than 2500 nM in experiment [2]. In experiment [3], the “VERAA (pA2)” value amounted to 5.8.

Consider `COc1ccc(N2C(C(=O)O)=C(c3ccc4c(c3)OCO4)c3ccccc3S2(=O)=O)c(Cl)c1` [Example 23, 4-Benzo[1,3]dioxol-5-yl-2-(2-chloro-4-methoxyphenyl)-1,1-dioxo-1,2-dihydro-1λ^6-benzo[e][1,2]thiazine-3-carboxylic acid], for which the values for the half-maximal inhibitory concentration (IC50) in experiment [1] and in experiment [2] were 21 nM and 6200 nM, respectively.

Regarding `O=C(O)C1=C(c2ccc3c(c2)OCO3)c2ccccc2S(=O)(=O)N1c1ccc(Cl)cc1Cl` [Example 22], the IC50 in experiment [1] was 50 nM; in experiment [2], 13000 nM.

In the case of `COc1cc(C2=C(C(=O)O)N(c3ccccc3Br)S(=O)(=O)c3ccccc32)cc2c1OCO2` [Example 9, 2-(2-Bromo-phenyl)4-(7-methoxy-benzo[1,3]-dioxol-5-yl)-1,1 dioxo 1,2-dihydro-1λ^6-benzo[e][1,2]-thiazine-3-carboxylic acid monosodium salt], the IC50 in experiment [1] was 2 nM; in experiment [2], more than 2500 nM. Also, the “VERAA (pA2)” value in experiment [3] is reported as 6.9.

With `COc1cc(C2=C(C(=O)O)N(c3ccccc3Cl)S(=O)(=O)c3ccccc32)cc2c1OCO2` [Example 4, 2-(2-Chloro-phenyl)-4-(7-methoxy-benzo[1,3]dioxol-5-yl)-1,1-dioxo-1,2-dihydro-1λ^6-benzo[e][1,2]-thiazine-3-carboxylic acid], the IC50 in experiment [1] stood at 3 nM; in experiment [2], 5600 nM.

On to `COc1cc(C2=C(C(=O)O)N(c3ccccc3C)S(=O)(=O)c3ccccc32)cc2c1OCO2` [Example 8, 4-(7-Methoxy-benzo[1,3]dioxol-5-yl)-1,1-dioxo-2o-tolyl-1,2-dihydro-1,6-benzo[e][1,2]-thiazine-3-carboxylic acid], for which the IC50 in experiment [1] amounted to 8 nM; in experiment [2], 3900 nM. Moreover, in experiment [3], the “VERAA (pA2)” value amounted to 6.5.

Take `Cc1cccc(C)c1N1C(C(=O)O)=C(c2ccc3c(c2)OCO3)c2ccccc2S1(=O)=O` [Example 26, 4-Benzo[1,3]dioxol-5-yl-2-(2,6dimethyl-phenyl)-1,1-dioxo-1,2dihydro-1λ^6-benzo[e][1,2]thiazine-3-carboxylic acid]: the IC50 is 17 nM in experiment [1] and more than 25000 nM in experiment [2].

Take `O=C(O)C1=C(c2ccc3c(c2)OCO3)c2ccccc2S(=O)(=O)N1c1cccc(Cl)c1Cl` [Example 21, 4-Benzo-[1,3]dioxol-5-yl-2-(2,3-dichlorophenyl)1,1-dioxo-1,2dihydro1λ^6-benzo [e][1,2]thiazine-3-carboxylic acid]: the IC50 in experiment [1] stood at 30 nM; in experiment [2] it was 13000 nM.

As to `O=C(O)C1=C(c2ccc3c(c2)OCO3)c2ccccc2S(=O)(=O)N1c1ccccc1F` [Example 19, 4-Benzo-[1,3]dioxol-5-yl-2-(2-fluorohenyl)-1,1-dioxo-1,2dihydro-1λ^6-benzo[e]rl[2]thiazine-3-carboxylic acid], the IC50 is 110 nM in experiment [1] and more than 25000 nM in experiment [2].

Turning to `Cc1noc(N2C(C(=O)O)=C(c3ccc4c(c3)OCO4)c3ccccc3S2(=O)=O)c1C` [Example 28], the IC50 in experiment [1] was 90 nM; in experiment [2], more than 25000 nM.

With `O=C(O)C1=C(c2ccc3c(c2)OCO3)c2ccccc2S(=O)(=O)N1c1ccccc1Cc1ccccc1` [Example 29, 4-Benzo[1,3]dioxol-5-yl-2-(2benzylphenyl)-1,1-dioxo-1,2-dihydro-1λ^6-benzo[e][1,2]thiazine-3-carboxylic acid], the concentration for half-maximal inhibition (IC50) in experiment [1] is 40 nM; in experiment [2], more than 2500 nM.

For `Cc1c(Cl)cccc1N1C(C(=O)O)=C(c2ccc3c(c2)OCO3)c2ccccc2S1(=O)=O` [Example 24], the IC50 in experiment [1] was 30 nM; in experiment [2], 17000 nM.

“4-(6-Methoxybenzo[1,3]dioxol-5-yl)-1,1-dioxo-2-(2-trifluoro-methyl-phenyl)-1,2-dihydro-1λ^6-benzo[e]r [1,2]thiazine-3-carboxylic acid [Example 30]”: the IC50 in experiment [1] was 95 nM; in experiment [2], more than 2500 nM.

As for `COc1cc(C2=C(C(=O)O)N(c3ccccc3Cc3ccccc3)S(=O)(=O)c3ccccc32)cc2c1OCO2` [Example 5, 2-(2-Benzylphenyl)4-(7-methoxy-benzo[1,3]dioxo-5-yl)-1,1-dioxo-1,2-dihydro-1λ^6-benzo[e][1,2]thiazine-3-carboxylic acid], the IC50 came out at 4 nM in experiment [1] and 2000 nM in experiment [2].

On to `COc1cc(OC)cc(C2=C(C(=O)O)N(c3ccccc3Br)S(=O)(=O)c3ccccc32)c1` [Example 3, 2-(2-Bromophenyl)-4-(3,5-dimethoxy-phenyl)-1,1-dioxo-1,2-dihydro-1 λ^6-benzo[e][1,2]thiazine-3-carboxylic acid], for which the half-inhibitory concentration (IC50) was 3 nM in experiment [1] and more than 2500 nM in experiment [2].

For `CC(C)c1ccccc1N1C(C(=O)O)=C(c2ccc3c(c2)OCO3)c2ccccc2S1(=O)=O` [Example 15, 4-Benzo[1,3]dioxol-5-yl-2-(2isopropylphenyl)-1,1-dioxo 1,2-dihydro 1λ^6-benzo[e][1,2]thiazine-3-carboxylic acid], the results for the IC50 in experiment [1] and in experiment [2] were 90 nM and 11000 nM, respectively.

`CCCCc1ccccc1N1C(C(=O)O)=C(c2ccc3c(c2)OCO3)c2ccccc2S1(=O)=O` [Example 16, 4-Benzo[1,3]dioxol-5-yl-2-(2butylphenyl)-1,1-dioxo-1,2-dihydro-1λ^6-benzo[e][1,2]thiazine-3-carboxylic acid]: the IC50 was 26 nM in experiment [1] and more than 2500 nM in experiment [2].

With `O=C(O)C1=C(c2ccc3c(c2)OCO3)c2ccccc2S(=O)(=O)N1c1ccccc1-n1cccc1` [Example 27, 4-Benzo[1,3]dioxol-5-yl-1,1-dioxo-2-(2-2-pyrrol-1-ylphenyl)-1,2-dihydro-1λ^6-benzo[e][12]thiazine-3-carboxylic acid], the IC50 in experiment [1] is 40 nM; in experiment [2] it was 19000 nM.

Consider `CCc1ccccc1N1C(C(=O)O)=C(c2ccc3c(c2)OCO3)c2ccccc2S1(=O)=O` [Example 13, 4-Benzo [1,3]dioxol-5-yl-2-(2ethyl-phenyl)-1,1-dioxo-1,2-dihydro-1λ^6-benzo[e][1,2]thiazine-3-carboxylic acid], for which the IC50 in experiment [1] is 23 nM; in experiment [2], more than 2500 nM.

Source of the values: US20010036944A1, “Certain benzothiazine dioxide endothelin antagonists and processes for their preparation” (priority 1997, published 2001).
